Where “and” joins values, the source holds several entries; their conditions need not be identical. Equal values may be shown once.

Holding throughout (format): in vivo
Assay [1] relates to Ipomoea hederacea (L.) JACQ. (IPOHE). The assay can be described thus: Postemergence herbicidal mixtures for weed control in direct seeded rice (greenhouse, visual % injury after 3 weeks).
The test system of assay [2] is Polygonum pensylvanicum L. (POLPY). The assay can be described thus: Postemergence herbicidal mixtures for weed control in direct seeded rice (greenhouse, visual % injury). To be noted: alone 100 g/ha.
In assay [3] the test system is Cyperus esculentus L. (CYPES). Described as above.
Assay [4] relates to Cyperus iria L. (CYPIR). The description is as above.
Assay [5] has as its system Echinochloa species (ECHSS). The assay can be described thus: Herbicidal mixtures for weed control in transplanted paddy rice (in-water application, visual % injury after 3 weeks). The following applies: ECHCG. In outline: (§1)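 Read-out: visual injury scored 0 (none) to 100 (complete kill) relative to untreated plants 3 weeks after treatment. Plants at the second or third true leaf stage in flooded mud received an injection of herbicide stock into the water; solvent-blank controls received the same acetone and crop oil levels.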

For assay [6], the system named is Cyperus species (CYPSS). The assay can be described thus: Herbicidal mixtures for weed control in transplanted paddy rice (in-water application, visual % injury). The following applies: 90 g/ha alone. In outline:
as §1

Assay [7] concerns Leptochloa chinensis (L.) NEES (LEFCH). The assay is described as above. To be noted: 90 g/ha alone. In outline:
as §1

Assay [8] deals with Scirpus maritimus L. (SCPMA). The assay is described as above. The following applies: 90 g/ha alone. The gist of the method: as §1
Assay [9] deals with Sphenoclea zeylanica GAERTN. (SPDZE). The description is as above. To be noted: 90 g/ha alone. In outline:
as §1

For assay [10], the system named is Fimbristylis miliacea (L.) VAHL (FIMMI). The assay is described as above. To be noted: 90 g/ha alone. As to the method: (§2) Weed seeds or nutlets of the desired test plant species were planted in puddled soil (mud) prepared by mixing a non-sterilized mineral soil (28 percent silt, 18 percent clay, and 54 percent sand, with a pH of about 7.3 to 7.8 and an organic matter content of about 1.0 percent) and water at a ratio of 100 kilograms (kg) of soil to 19 L of water. The prepared mud was dispensed in 250 mL aliquots into 480 mL non-perforated plastic pots with a surface area of 91.6 square centimeters leaving a headspace of 3 centimeters in each pot. Rice seeds were planted in Sun Gro MetroMix® 306 planting mixture, which typically has a pH of 6.0 to 6.8 and an organic matter content of about 30 percent, in plastic plug trays. Seedlings at the second or third leaf stage of growth were transplanted into 650 mL of mud contained in 960 mL non-perforated plastic pots with a surface area of 91.6 cm^2 4 days prior to herbicide application. The paddy was created by filling the 3 centimeter headspace of the pots with water. […] The plants were grown for 4-14 days in a greenhouse with an approximate 14 hr photoperiod which was maintained at about 29° C. during the day and 26° C. during the night. Nutrients were added as Osmocote (17:6:10, N:P:K+minor nutrients) at 2 g per cup. Water was added on a regular basis to maintain the paddy flood, and supplemental lighting was provided with overhead metal halide 1000-Watt lamps as necessary. The plants were employed for testing when they reached the second or third true leaf stage.
(§3) Treatments consisted of esters or salts of compound A, compound C, or compound D and various herbicidal components alone and in combination. For technical grade compounds, a weighed amount, determined by the highest rate to be tested, was placed in an individual 120 mL glass vial and was dissolved in 20 mL of acetone to obtain concentrated stock solutions. […] The concentrated stock solutions obtained were diluted with 20 mL of an aqueous mixture containing 2.5% Agri-dex crop oil concentrate (v/v). For formulated compounds, a measured amount, determined by the highest rate to be tested, was placed in an individual 120 mL glass vial and was dissolved in 20 mL of 2.5% (v/v) Agri-dex crop oil concentrate to obtain concentrated stock solutions. The concentrated stock solutions obtained were diluted with 20 mL of acetone. Applications were made by injecting an appropriate amount of the stock solution into the aqueous layer of the paddy. Control plants were treated in the same manner with the solvent blank. All treated plant material received the same concentration of acetone and crop oil concentrate.
(§4) Forms of compounds A, C, and D were applied on an acid equivalent basis. Other herbicidal components were applied on an active ingredient basis and included acetolactate synthase (ALS)-inhibiting herbicides penoxsulam (triazolopyrimidine chemical class) applied as Grasp SC, […] (sulfonylurea chemical class) applied as Sirius G, and bensulfuron-methyl (sulfonylurea chemical class) applied as Londax; acetyl CoA carboxylase (ACCase) inhibiting herbicides cyhalofop-butyl applied as Clincher G and fenoxaprop-p-ethyl applied as Ricestar HT; auxinic herbicide quinclorac applied as Facet 75 DF; phytoene desaturase inhibiting herbicide norflurazon; and p-hydroxyphenylpyruvate dioxygenase (HPPD) inhibiting herbicide sulcotrione applied as Mikado.
(§5) The treated plants and control plants were placed in a greenhouse as described above and water was added as needed to maintain a paddy flood. After 3 weeks the condition of the test plants as compared with that of the untreated plants was determined visually and scored on a scale of 0 to 100 percent where 0 corresponds to no injury and 100 corresponds to complete kill.

In assay [11] the test system is Scirpus species (SCPSS). Described as above. To be noted: SCPJU; 90 g/ha alone. As to the method: as §2, §3, §4, §5

Take `CCCCOC(=O)[C@@H](C)Oc1ccc(Oc2ccc(C#N)cc2F)cc1` [Cyhalofop-butyl]: the “% Injury IPOHE Ob” value in assay [1] (alone 140 g/ha) and in assay [1] (alone 280 g/ha) was 0% each time. The “% Injury POLPY Ob” value in assay [2] worked out at 0%. Further, the “% Injury CYPES Ob” value in [3] (alone 100 g/ha) and in [3] (alone 200 g/ha) was 0% throughout. The “% Injury CYPIR Ob” value in assay [4] (alone 140 g/ha) and in assay [4] (alone 280 g/ha) was 0% throughout. For the same molecule, the “% Injury Ob” value in [5] (90 g/ha alone) was 50%; in assay [5] (180 g/ha alone), 75% and 95%; in assay [6] (CYPES) it was 0%; in assay [6] (CYPIR) it was 0%; in assay [7], 50%; in assay [8], 0%. Besides, the “% Injury Ob” value in assay [9], in assay [10] and in [11] was 0% throughout.

The values are drawn from patent US10556865B2, “Synergistic herbicidal composition containing certain pyridine or pyrimidine carboxylic acids and certain cereal and rice herbicides” (Dow AgroSciences, LLC, priority 2007, dated 2020).
